pIC50: −log10 of the molar value.
Key:
RAW264.7 = test: Antiinflammatory activity in mouse RAW264.7 cells assessed as inhibition of LPS-induced nitric oxide production after 24 hrs by Griess assay; type: functional, cell-based; conditions: RAW264.7, 24 h
MDA-MB-231 = test: Antiinvasive activity in human MDA-MB-231 cells assessed as inhibition of EGF-induced cell invasion after 3.5 hrs; type: functional, cell-based; conditions: MDA-MB-231, 3.5 h

Structure (SMILES) | pIC50 (RAW264.7) | pIC50 (MDA-MB-231)
CC1(C)[C@H](O)CC[C@@]2(C)[C@@H]3CC[C@](C)([C@@H](O)CO)C=C3C=C[C@H]12 | < 4.00 | < 5.00
C[C@@]1(CO)C[C@H](O)C[C@@]2(C)[C@@H]3CC[C@](C)([C@@H](O)CO)C=C3CC[C@H]12 | < 4.00 | < 5.00
C[C@]1(CO)C[C@@H](O)C[C@@]2(C)[C@@H]3CC[C@](C)([C@@H](O)CO)C=C3CC[C@H]12 | < 4.00 | < 5.00
CC1(C)[C@H]2CC=C3[C@@H](CC[C@@]4(C)[C@@H]3OC[C@@H]4O)[C@]2(C)CC[C@@H]1O | < 4.00 | < 5.00
C[C@@]1(CO)C[C@@H](O)C[C@@]2(C)[C@@H]3CC[C@](C)(O)[C@@H](CO)C=C3CC[C@H]12 | < 4.00 | < 5.00
C[C@@]1(CO)C[C@@H](O)C[C@@]2(C)[C@@H]3CC[C@](C)([C@@H](O)CO)C=C3[C@@H](O)C[C@H]12 | < 4.00 | < 5.00
Cc1ccc2c(c1)C(=O)C[C@@H]1[C@](C)(CO)CC(=O)C[C@@]21C | < 4.00 | 5.37
Cc1ccc2c(c1)CC[C@@H]1[C@](C)(CO)C[C@@H](O)C[C@@]21C | < 4.00 | < 5.00
CC1(C)[C@H](O)C[C@H](O)[C@@]2(C)[C@@H]3CC[C@](C)([C@@H](O)CO)C=C3CC[C@H]12 | < 4.00 | < 5.00
CC1(C)[C@H](O)CC[C@@]2(C)[C@@H]3CC[C@@]4(C)[C@H](OC[C@@H]4O)C3=CC[C@H]12 | < 4.00 | < 5.00
C[C@]1(CO)[C@H]2CCC3=C[C@@](C)([C@@H](O)CO)CC[C@H]3[C@]2(C)C[C@H](O)[C@H]1O | < 4.00 | < 5.00
C[C@@]1(CO)C[C@@H](O)C[C@@]2(C)[C@@H]3CC[C@](C)([C@H](O)CO)C=C3CC[C@H]12 | < 4.00 | < 5.00
CC1(C)[C@H](O)CC[C@@]2(C)[C@@H]3CC[C@](C)([C@H](O)CO)C=C3CC[C@H]12 | < 4.00 | 5.46
C[C@@]1(CO)C[C@@H](O)C[C@@]2(C)[C@@H]3CC[C@](C)([C@@H](O)CO)C=C3[C@H](O)C[C@H]12 | < 4.00 | 5.01
C[C@@]1(CO)C[C@@H](O)C[C@@]2(C)[C@@H]3CC[C@](C)([C@@H](O)CO)C=C3C=C[C@H]12 | < 4.00 | < 5.00
CC1(C)[C@H](O)CC[C@@]2(C)[C@@H]3CC[C@](C)(O)[C@@H](CO)C=C3CC[C@H]12 | < 4.00 | < 5.00
CC1(C)[C@H](O)CC[C@@]2(C)[C@@H]3CC[C@](C)([C@@H](O)CO)C=C3CC[C@H]12 [DARUTIGENOL] | < 4.00 | < 5.00
C[C@@]1(CO)C[C@@H](O)C[C@@]2(C)[C@@H]3CC[C@](C)([C@@H](O)CO)C=C3CC[C@H]12 [KIRENOL] | < 4.00 | < 5.00

Source: ChEMBL document CHEMBL4004790, “ent-Strobane and ent-Pimarane Diterpenoids from Siegesbeckia pubescens” (J Nat Prod, 2017)
